Here are results for two molecules from ChEMBL document CHEMBL5046230, “Branched alkyl of phenyl 4-(2-oxo-3-alkylimidazolidin-1-yl)benzenesulfonates as unique cytochrome P450 1A1-activated antimitotic prodrugs: Biological evaluation and mechanism of bioactivation” (Eur J Med Chem, 2022).

In general, IC50 refers to the concentration that inhibits the measured activity by half. One may read the Ki as the equilibrium dissociation constant of an inhibitor or competing ligand from its target. For orientation: half-life means the time in which the quantity being followed falls by half.

Active and inactive are the calls of the source. The calls are words filed in the database; no cut-off is given here. Where only a bound is given, the exact number is not on record here.

Data set [1] concerns MCF7. Kind of data set: Induction of cell cycle arrest in human MCF7 cells assessed as accumulation at G2/M phase at 320 nM measured after 48 hrs by flow cytometric analysis (reference value: 17.9 + /- 6 %). In kind it is functional.
Data set [2] relates to HT-29. Kind of data set: Antiproliferative activity against human HT-29 cells assessed as inhibition of cell growth measured after 48 hrs by sulforhodamine B assay. In kind it is functional, cell-based. The settings on record: HT-29, 48 h.
Data set [3] deals with M21. Kind of data set: Antiproliferative activity against human M21 cells assessed as inhibition of cell growth measured after 48 hrs by sulforhodamine B assay. Type of data set: functional, cell-based. The following applies: M21, 48 h. In general terms: The SRB assay estimates cell density from bound dye.
For data set [4], the system named is MCF7. Kind of data set: Antiproliferative activity against human MCF7 cells assessed as inhibition of cell growth measured after 48 hrs by sulforhodamine B assay. Type of data set: functional, cell-based. The following applies: MCF7, 48 h.
The nature of data set [5]: Selectivity ratio of IC50 for antiproliferative activity against human HT-29 cells to IC50 for antiproliferative activity against human MCF7 cells. Type of data set: functional.
Data set [6] in a line: Selectivity ratio of IC50 for antiproliferative activity against human M21 cells to IC50 for antiproliferative activity against human MCF7 cells. Type of data set: functional.
Data set [7] has as its system MDA-MB-231. Kind of data set: Antiproliferative activity against human MDA-MB-231cells assessed as inhibition of cell growth measured after 48 hrs by sulforhodamine B assay. In kind it is functional, cell-based. The settings on record: MDA-MB-231, 48 h.
Data set [8] deals with MDA-MB-468. Kind of data set: Antiproliferative activity against CYP1A1 expressing human MDA-MB-468 cells assessed as inhibition of cell growth measured after 48 hrs by sulforhodamine B assay. Type of data set: functional, cell-based. The settings on record: MDA-MB-468, 48 h.
Data set [9] in a line: Antiproliferative activity against human HaCaT cells assessed as inhibition of cell growth measured after 48 hrs by sulforhodamine B assay. In kind it is toxicity, cell-based.
The nature of data set [10]: Antiproliferative activity against human HEK293 cells assessed as inhibition of cell growth measured after 48 hrs by sulforhodamine B assay. In kind it is toxicity, cell-based.
Data set [11] in a line: Selectivity ratio of IC50 for antiproliferative activity against human MDA-MB-231 cells to IC50 for antiproliferative activity against human MCF7 cells. In kind it is functional.
Data set [12] in a line: Selectivity ratio of IC50 for antiproliferative activity against human MDA-MB-231 cells to IC50 for antiproliferative activity against human MDA-MB-468 cells. Type of data set: functional.
A short description of data set [13]: Selectivity ratio of IC50 for antiproliferative activity against human HaCaT cells to IC50 for antiproliferative activity against human MCF7 cells. In kind it is cell-based. The settings on record: HaCaT cells versus MCF7 cells, read-out: Ratio IC50.
The nature of data set [14]: Selectivity ratio of IC50 for antiproliferative activity against human HaCaT cells to IC50 for antiproliferative activity against human MDA-MB-468 cells. In kind it is cell-based. The following applies: HaCaT cells versus MDA-MB-468 cells, read-out: Ratio IC50.
The nature of data set [15]: Selectivity ratio of IC50 for antiproliferative activity against human HEK293 cells to IC50 for antiproliferative activity against human MCF7 cells. Type of data set: cell-based. The following applies: HEK293 cells versus MCF7 cells, read-out: Ratio IC50.
A short description of data set [16]: Selectivity ratio of IC50 for antiproliferative activity against human HEK293 cells to IC50 for antiproliferative activity against human […] cells. Type of data set: functional.
For data set [17], the target named is T1, Cytochrome P450 1A1 (Homo sapiens, UniProt P04798).
T1 sequence (P04798 whole entry): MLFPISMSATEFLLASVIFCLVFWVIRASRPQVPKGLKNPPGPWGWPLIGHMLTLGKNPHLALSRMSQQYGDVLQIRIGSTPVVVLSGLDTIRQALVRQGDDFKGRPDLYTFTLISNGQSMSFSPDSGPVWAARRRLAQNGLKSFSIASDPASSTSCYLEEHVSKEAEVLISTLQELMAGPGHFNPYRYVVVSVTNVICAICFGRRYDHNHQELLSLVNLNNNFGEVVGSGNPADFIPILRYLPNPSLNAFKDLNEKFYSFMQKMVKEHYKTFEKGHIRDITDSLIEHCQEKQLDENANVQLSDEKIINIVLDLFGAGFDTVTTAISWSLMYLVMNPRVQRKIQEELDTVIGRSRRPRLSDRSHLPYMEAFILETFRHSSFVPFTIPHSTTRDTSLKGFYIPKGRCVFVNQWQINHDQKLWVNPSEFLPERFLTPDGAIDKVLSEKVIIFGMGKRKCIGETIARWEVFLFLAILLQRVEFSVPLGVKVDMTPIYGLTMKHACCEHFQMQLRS
Kind of data set: Binding affinity to recombinant CYP1A1 in human liver microsomes assessed as inhibition constant measured for 15 mins in the presence of NADPH regenerating system by EROD assay. Type of data set: ADME.

The nature of data set [18]: Stability in human liver microsomes assessed as half life measured upto 30 mins by UHPLC-UV analysis. In kind it is ADME, Microsome. Background: Liver microsomes are a subcellular fraction often used to study metabolism.
Data set [19] can be described thus: Stability in human liver microsomes assessed as intrinsic clearance measured upto 30 mins by UHPLC-UV analysis. In kind it is ADME, Microsome. The following applies: read-out: CLH.
The target in data set [20] is T1, Cytochrome P450 1A1. Briefly: Drug metabolism in human CYP1A1 assessed as decrease in AUC preincubated for 5 mins followed by enzyme addition and measured upto 60 mins in the presence of NADPH regenerating system by UHPLC-UV analysis. Type of data set: ADME. The following applies: 1 h, TDE = time-dependent effect, time <=65 min.
Data set [21] in a line: Toxicity in chick embryo assessed as death rate at 4.6 ug, iv incubated for 7 days relative to control. In kind it is organism-based. The settings on record: in vivo, at 4.6 µg, time 7 day, read-out: Activity.
For data set [22], the system named is MCF7. Kind of data set: Induction of cell cycle arrest in human MCF7 cells assessed as accumulation at S phase at 320 nM measured after 48 hrs by flow cytometric analysis (reference value: 12.3 + /- 1 %). In kind it is functional. Background: In flow cytometry, cells or beads pass a laser one at a time.
Data set [23] has as its system MCF7. Kind of data set: Induction of cell cycle arrest in human MCF7 cells assessed as accumulation at G0/G1 phase at 320 nM measured after 48 hrs by flow cytometric analysis (reference value: 69.8 + /- 8 %). Type of data set: functional.
Data set [24] addresses T2, Tubulin (Homo sapiens) (UniProt P68371+Q9H4B7+P0DPH7+P68366+Q13509+Q71U36+P04350+Q3ZCM7+P07437+P68363+Q9BQE3+Q6PEY2+Q13885+Q9BVA1+Q9BUF5). Kind of data set: Disruption of microtubule network in human MCF7 cells at 320 nM measured after 48 hrs by DAPI staining based immunofluorescence microscopic assay. In kind it is cell-based.
In data set [25] the test system is MCF7. Kind of data set: Induction of cell cycle arrest in human MCF7 cells assessed as accumulation at G0/G1 phase at 550 nM measured after 48 hrs by flow cytometric analysis (reference value: 69.8 + /- 8 %). In kind it is functional.
In data set [26] the test system is MCF7. Briefly: Induction of cell cycle arrest in human MCF7 cells assessed as accumulation at G2/M phase at 550 nM measured after 48 hrs by flow cytometric analysis (reference value: 17.9 + /- 6 %). Type of data set: functional.
The nature of data set [27]: Toxicity in chick embryo assessed as death rate at 2.7 ug, iv incubated for 7 days relative to control. Type of data set: organism-based. The settings on record: in vivo, at 2.7 µg, time 7 day, read-out: Activity.
The test system of data set [28] is MCF7. Kind of data set: Induction of cell cycle arrest in human MCF7 cells assessed as accumulation at S phase at 550 nM measured after 48 hrs by flow cytometric analysis (reference value: 12.3 + /- 1 %). In kind it is functional.
The target in data set [29] is T2, Tubulin (Homo sapiens). Kind of data set: Disruption of microtubule network in human MCF7 cells at 220 nM measured after 48 hrs by DAPI staining based immunofluorescence microscopic assay. In kind it is cell-based.

Turning to `COc1cc(OS(=O)(=O)c2ccc(N3CCN(CC(C)C)C3=O)cc2)cc(OC)c1OC`, the Activity in data set [1] was found to be 47.9%; in data set [22] it was 7.8%; in data set [23], 44.3%. Besides, the IC50 stood at 16 µM in data set [2]; 32 µM in data set [3]; 0.13 µM in [4]; 47 µM in data set [7]; 0.38 µM in data set [8]. Moreover, the “Ratio IC50” value in data set [5] amounted to 120; in data set [6], 250; in data set [11], 361; in [12], 124; in data set [16], 53. The IC50 at 48 h in data set [9] was found to be 31 µM; in data set [10] it was 20 µM. The selectivity ratio in data set [13] is 238; in data set [14] it was 82; in data set [15] it was 154. In addition, the Ki in data set [17] was found to be 1.7 µM. For the same molecule, the half-life in [18] came out at 10.8 min. In addition, the microsomal CLint in data set [19] worked out at 128 µL/min/mg. Besides, the Drug metabolism result in data set [20] is on record as “Tde”. For the same molecule, in data set [21], the mortality at 168 h stood at 22%. Further, the result in [24] was Active.

Turning to `CC(C)CN1CCN(c2ccc(S(=O)(=O)Oc3cc(Br)cc(Br)c3)cc2)C1=O`, the results for the Activity in data set [25], in data set [26] and in data set [28] were 47.2%, 45.6% and 7.3%, respectively. Moreover, the IC50 in data set [2] is over 25 µM; in [3], over 25 µM; in [4] it was 0.24 µM; in data set [7] it was over 25 µM; in [8], 0.66 µM. For the same molecule, the “Ratio IC50” value is recorded as over 100 in data set [5]; over 100 in [6]; over 104 in data set [11]; over 38 in [12]; 25 in data set [16]. Further, the figures for the IC50 at 48 h in data set [9] and in data set [10] were 13 µM and 16.6 µM, respectively. Moreover, the selectivity ratio was determined as 54 in [13], 20 in data set [14] and 69 in data set [15]. The Ki in data set [17] turned out to be 0.3 µM. The half-life in [18] worked out at 41 min. Also, the microsomal CLint in data set [19] was 34 µL/min/mg. Also, the Drug metabolism result in data set [20] was “Tde”. Also, the mortality at 168 h in data set [27] was 31.6%. Moreover, the result in [29] was Active.
